Measurements from US20050053912A1, “Methods for inducing reversible stasis” (priority 2001, published 2005).

Key:
zebrafish embryos [1] = test: Viability of zebrafish embryos treated with compound, in anoxia versus normoxia; format: in vivo; settings: approx. 8 hpf embryos
Excerpt: Oxygen Deprivation Environments. For all studies an anaerobic bio-bag type A environmental chamber was used according to manufacturer's instructions (Becton Dickinson). This method contains a resazurin indicator that allows one to determine when the anoxic environment is established. A second method was used to verify suspended animation results. This method involved use of a chamber perfused with 100% N2 gas (Airgas Inc.) and monitored for oxygen using a FYRITE O2 Gas Analyzer (Bacharach, Pittsburgh, Pa.) and Resazurin Indicator (Becton Dickinson). By using these anoxia-producing methods, it took approximately two hours for the oxygen concentration to reach zero. Development of embryos could continue for another 1-2.5 hours, depending on the amount of water present.
This example describes the identification of a compound that causes fish embryos subjected to an anoxic/hypoxic environment to die. In this example, fish were maintained at 28° C. in fish water or embryo media (Westerfield, 1995). Briefly, zebrafish embryos at approximately 8 hpf were pre-treated with Pronase to remove the chorion. Approximately 10 pre-treated fish were placed in each 30 mm petrie dishes in either fish water or embryo media. […] After 24 hours in anoxia, the embryos were returned to room air and viability was assessed visually. […]

zebrafish embryos [2] = test: Induction of and exit from stasis in zebrafish embryos under normoxic conditions; format: in vivo
Description: This example describes the identification of a compound that causes fish embryos to enter stasis. In this example, fish were maintained at 28° C. in fish water or embryo media. Briefly, zebrafish embryos at approximately 8 hpf were pre-treated with Pronase to remove the chorion. Approximately 10 pre-treated fish were placed in 30 mm petrie dishes in either fish water or embryo media. Dilutions of Rotenone (Sigma, St. Louis, Mo.) were added to the pre-treated fish in concentrations from approximately 10 μg/ml reduced in half-logs concentrations down to approximately 10 ng/ml. The embryos were exposed to the compound for approximately 12 hours at 28° C. under normoxic conditions. As a control, pre-treated embryos were incubated in normoxic conditions at 28° C. for the same period of time. After incubation with the compound, the embryos were assessed visually for entry into stasis. […] The Rotenone-treated embryos were removed into fresh medium and incubated at 28° C. under normoxic conditions for 24 hours. The embryos were then assessed visually for the ability to exit stasis.

Row | Compound | viability assessed visually after anoxia (zebrafish embryos [1]; 500 nM, approx. 2 h pre-exposure, 24 hours anoxia at 28° C., then returned to room air) | viability, treated embryos not placed in anoxia (zebrafish embryos [1]; normoxic conditions at 28° C. for 24 hours (control)) | entry into stasis assessed visually (zebrafish embryos [2]; 0.1 μg/ml, approx. 8 hpf embryos, approx. 12 hours at 28° C. under normoxic conditions) | ability to exit stasis assessed visually (zebrafish embryos [2]; embryos removed into fresh medium, 28° C., normoxic conditions for 24 hours)
1 | 1H, 5H, 11H, 15H-Xantheno[2,3,4-ij:5,6,7-i′j′]diquinolizin-18-ium, 9-[4-(chloromethyl)phenyl]-2,3,6,7,12,13,16,17-octahydro-, chloride [M[…]] | not viable | viable |  | 
2 | C=C(C)[C@H]1Cc2c(ccc3c2O[C@@H]2COc4cc(OC)c(OC)cc4[C@@H]2C3=O)O1 [Rotenone] |  |  | enter stasis | reversible stasis inducer
